Where two headings read alike, the source gives them in different places.
Legend:
[1] = test system: Staphylococcus aureus; test: Control: microbicidal activity of the amino acid or analogue alone (no glucose, MPO, glucose oxidase) in the presence of blood; assay type: cell-based; conditions: for log reduction at 5000 µM: Staphylococcus aureus, 1 h, read-out: Log Reduction 60 min
Source text: As a control to determine the microbicidal activity of the amino acids alone, the foregoing procedure was followed without replication, except in the absence of glucose, MPO, and glucose oxidase.

[2] = test system: Staphylococcus aureus; test: Microbicidal activity of the myeloperoxidase system (p-MPO, glucose oxidase, glucose) with amino acids in the presence of blood, CFU plate counts; synergy determination from these CFU; assay type: cell-based; conditions: for Average Viability CFU/ml 60 min / Log 10 (CFU + 1) Survivors 60 min / Log Reduction 60 min: MPO 38 U/ml, GO 33.3 U/ml, blood; for Average Viability CFU/ml 50 min / Log Reduction 50 min: MPO 4.7 U/ml, GO 4.2 U/ml
Outline: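 Staphylococcus aureus grown 24 hours in TSB at 35° C was washed in saline and added at a final 2-3×10^7 CFU per mL. The bacteria were mixed in 1 mL reactions with porcine myeloperoxidase, glucose oxidase, amino acids, 150 mM sodium chloride and 3% venous whole blood. Adding glucose to 150 mM started killing. After catalase addition, survivors were counted by serial dilution plating on TSA at 37° C for 24 hours.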

[3] = amino acid alone 5 mM, MPO 0, GO 0, no glucose, blood, without replication
[4] = Table 2, amino acid 5 mM (none: 0 mM)
[5] = amino acid analogue alone 5 mM, MPO 0, GO 0, no glucose, blood
[6] = Table 7, amino acid analogue 5 mM
[7] = MPO 100 μg/mL, AA 20 mM, 30 min
[8] = MPO 100 μg/mL, AA 20 mM, 60 min
[9] = Table 3, amino acid 5 mM (none: 0 mM)
[10] = Table 13, single amino acid 2.5 mM, in the presence of blood
[11] = Table 10, single amino acid 2.5 mM, in the presence of blood
[12] = Table 14, single amino acid 2.5 mM, in the presence of blood
[13] = Table 11, single amino acid 2.5 mM, in the presence of blood

Row | SMILES | Average Viability CFU/ml 60 min [1, 3] [CFU/ml] | Average Viability CFU/ml 60 min [2, 4] [CFU/ml] | Log 10 (CFU + 1) Survivors 60 min [2, 4] | Log Reduction 60 min [2, 4] | log reduction at 5000 µM [1, 5] | Average Viability CFU/ml 60 min [1, 5] [CFU/ml] | Average Viability CFU/ml 60 min [2, 6] [CFU/ml] | Log Reduction 60 min [2, 6] | Log 10 (CFU + 1) Survivors ([2]; MPO 25 μg/mL, AA 5 mM, 30 min) | Log 10 (CFU + 1) Survivors ([2]; MPO 25 μg/mL, AA 5 mM, 60 min) | Log 10 (CFU + 1) Survivors ([2]; MPO 25 μg/mL, AA […], 30 min) | Log 10 (CFU + 1) Survivors ([2]; MPO 25 μg/mL, AA […], 60 min) | Log 10 (CFU + 1) Survivors ([2]; MPO 100 μg/mL, AA 5 mM, 30 min) | Log 10 (CFU + 1) Survivors ([2]; MPO 100 μg/mL, AA 5 mM, 60 min) | Log 10 (CFU + 1) Survivors [2, 7] | Log 10 (CFU + 1) Survivors [2, 8] | other results
1 | N[C@@H](Cc1c[nH]c2ccccc12)C(=O)O [L-Tryptophan] | 21600000 | 21150000 | 7.3 | 0.1 |  |  |  |  |  |  |  |  |  |  |  |  | log reduction at 5000 µM [1]: 0
2 | CCOC(=O)C(C)N (stereo not drawn) [Ethyl 2-aminopropanoate] |  |  |  |  | 0 | 23200000 | 0 | 7.4 |  |  |  |  |  |  |  |  | 
3 | C[C@@H](N)C(=O)O [D-Alanine] | 19600000 |  |  |  |  |  |  |  | 7.3 | 3.7 | 7.3 | 6.7 | 6.8 | 0.6 | 7.3 | 0.0 | log reduction at 5000 µM [1, 3]: 0; Average Viability CFU/ml 60 min [2, 9]: 0 CFU/ml; Log 10 (CFU + 1) Survivors 60 min [2, 9]: 0.0; Log Reduction 60 min [2, 9]: 7.3; Average Viability CFU/ml 50 min [2, 10]: 1900000 CFU/ml; Log Reduction 50 min [2, 10]: 1.1
4 | N[C@@H](CCC(=O)O)C(=O)O [L-Glutamic acid] | 23700000 | 236 | 2.4 | 5.0 |  |  |  |  | 7.1 | 7.0 | 7.3 | 6.7 | 6.9 | 2.8 | 7.3 | 6.0 | log reduction at 5000 µM [1]: 0; Average Viability CFU/ml 50 min [2, 11]: 10850000 CFU/ml; Log Reduction 50 min [2, 11]: 0.4; Average Viability CFU/ml 50 min [2, 10]: 11800000 CFU/ml; Log Reduction 50 min [2, 10]: 0.3; Average Viability CFU/ml 50 min [2, 12]: 13700000 CFU/ml; Log Reduction 50 min [2, 12]: 0.3
5 | CC(N)CC(=O)O (stereo not drawn) [3-Aminobutanoic acid] |  |  |  |  | 0 | 21300000 | 9 | 6.4 |  |  |  |  |  |  |  |  | 
6 | CCOC(=O)[C@@H](N)C(C)C.Cl [L-Valine ethyl ester hydrochloride] |  |  |  |  | 0 | 22300000 | 0 | 7.4 |  |  |  |  |  |  |  |  | 
7 | N[C@@H](Cc1ccccc1)C(=O)O [L-Phenylalanine] | 22400000 | 0 | 0.0 | 7.4 |  |  |  |  | 7.1 | 0.0 | 7.0 | 4.9 | 0.0 | 0.0 | 0.0 | 0.0 | log reduction at 5000 µM [1, 3]: 0; Average Viability CFU/ml 50 min [2, 11]: 10550000 CFU/ml; Log Reduction 50 min [2, 11]: 0.4; Average Viability CFU/ml 50 min [2, 13]: 11100000 CFU/ml; Log Reduction 50 min [2, 13]: 0.4; Average Viability CFU/ml 50 min [2, 12]: 12050000 CFU/ml; Log Reduction 50 min [2, 12]: 0.3; Average Viability CFU/ml 50 min ([2]; Table 19, amino acid 3.5 mM): 11200000 CFU/ml; Log Reduction 50 min ([2]; Table 19, amino acid 3.5 mM): 0.4

From US8945540B2, “Compositions for enhancing the antibacterial activity of myeloperoxidase and methods of use thereof” (Exoxemis, Inc., priority 2008, dated 2015)
